Counter-ions that a name gives are not always drawn.
Key:
DEX-treated mice [1] = assay: Sedation behavior by rodent sedation rating scale; type: in vivo, ICR mice; conditions: s.c., 120 mg/kg of ketamine free-base; for sedation behavior (rodent sedation rating scale): immediately post injection to 14 days
Method: (§1) ICR mice were intraperitoneally injected with saline or DEX at postnatal day 1 to 3 (P1-P3) with dose decrement of 0.5 mg/kg, 0.3 mg/kg, and 0.1 mg/kg, respectively. The drugs for each group or saline were administered subcutaneously at postnatal day 35, P35 (i.e., dosing day 0, D0), and forced swimming test (FST) was conducted on dosing day 1 (D1, P36) and dosing day 10 (P45) after drug administration. Evaluation of sedation behavior was also conducted by sedation rating scale from the time immediately post injection to dosing day 14 (P49) after drug administration.
(§2) Neonatal ICR mice (BioLASCO, Taipei, Taiwan) were intraperitoneally injected with saline or DEX on postnatal day 1, 2, and 3 (P1, P2, and P3) at doses of 0.5 mg/kg, 0.3 mg/kg, and 0.1 mg/kg, respectively. […] The dugs were then subcutaneously injected into mice of the corresponding groups at postnatal day 35, while the mice of the Control and Saline groups were injected with equal volumes of 0.9% saline. Drugs for administration were prepared in phosphate-buffered saline (PBS), and then well mixed by high speed vortex before injection.
Furthermore, sedation behavior was also evaluated by rodent sedation rating scale (Table 6) immediately post drug administration to 14 days.

beagle dogs = assay: Injection site evaluation by Draize skin erythema/eschar rating scale; type: in vivo; conditions: male beagle dogs, individual animals, single 44 mg/kg of ketamine free-base, Day 1, 2, 4, 8, 15
Method: A specific in vivo study to evaluate the injection site reaction of KEP was conducted in beagle dogs ([…] LABES, CO., LTD. Ina, Japan).

[2] = system: female Sprague Dawley (SD) rats; assay: 3-month repeat-dose toxicology study; conditions: for neuronal morphology in prefrontal cortex / bladder mucosal folds (histopathology) / bladder apical epithelial surfaces (histopathology): total 1440 mg/kg of ketamine free-base; for neuronal morphology in prefrontal cortex: brain slices; for bladder mucosal folds (histopathology): magnification x40; for bladder apical epithelial surfaces (histopathology): magnification x400; for injection site observation (skin surface) / injection site histopathology: inflammatory cells at higher magnification / injection site histopathology: tissue morphology: KET 60 mg/kg twice weekly, KEP 480 mg/kg monthly; for injection site histopathology: inflammatory cells at higher magnification / injection site histopathology: tissue morphology: HE staining
DEX-treated mice [3] = assay: Forced swimming test (FST) in DEX-induced depression-like animal model; type: in vivo, ICR mice; conditions: 120 mg/kg of ketamine free-base; for onset of antidepressant effect on FST: single injection; for immobility time in FST: single s.c. injection
Method: as §1, §2
Antidepressant effects were evaluated by forced swimming test (FST), which performed on dosing day 1 (P36) and dosing day 10 (P45) after drug administration. The mice of all groups were trained for swimming before drug administration. During the FST, mice were individually placed into 5 L glass cylinders (height 27 cm, diameter 18 cm) filled with 4 L of water (23±1° C.). The total duration of immobility time during 5 minutes of FST was observed. Results were presented as mean±SEM. Student's t-test was utilized to analyze Saline group (DEX-treated mouse group injected with saline) versus the other groups at each time point. * p<0.05, ** p<0.01, and *** p<0.001 indicate significant differences compared to the Saline group.

[4] = in vivo; cited from earlier work

Row | Compound | sedation behavior (rodent sedation rating scale) (DEX-treated mice [1]) | Draize skin erythema/eschar observation at injection site (beagle dogs) | tolerability of single subcutaneous injection ([2]; 480 mg/kg of ketamine free-base) | neuronal morphology in prefrontal cortex ([2]; 12 weeks) | bladder mucosal folds (histopathology) ([2]; 12 weeks) | bladder apical epithelial surfaces (histopathology) ([2]; 12 weeks) | density of inflammatory cells at injection site under microscopic fields ([2]; s.c., 12 weeks, KEP 480 mg/kg monthly versus KET 60 mg/kg twice weekly) | injection site observation (skin surface) ([2]; s.c., 12 weeks) | injection site histopathology: inflammatory cells at higher magnification ([2]; s.c., 12 weeks) | injection site histopathology: tissue morphology ([2]; s.c., 12 weeks) | onset of antidepressant effect on FST (DEX-treated mice [3]) | immobility time in FST (DEX-treated mice [3]; day 1 after administration) | immobility time in FST (DEX-treated mice [3]; day 10 after administration) | LD50 dose [4] | time to full recovery from sedation (DEX-treated mice [1]; post administration) | pathological bladder and brain changes ([2]; high dose subchronic treatment for 12 weeks) | maximum tolerated dose (MTD) ([2]; subcutaneous injection)
1 | R, S-ketamine pamoate [KEP] | normal behavior | No erythema | well tolerable | normal | thin mucosal folds | rough | much less than KET group | normal skin surfaces | infiltration of inflammatory cells in connective tissues | normal morphology of skin slices | rapid-onset antidepressant effects | reduced the immobility times | reduced the immobility times | – | – | – | –
2 | CNC1(c2ccccc2Cl)CCCCC1=O (centres unmarked) [ketamine] | – | – | – | – | – | – | – | – | – | – | – | – | – | 229 mg/kg | – | – | –
3 | CN[C@]1(c2ccccc2Cl)CCCCC1=O [S-KEP, S-ketamine pamoate] | normal behavior | – | – | – | – | – | – | – | – | – | rapid-onset antidepressant effects | reduced the immobility times | reduced the immobility times | – | – | – | –
4 | CN[C@@]1(c2ccccc2Cl)CCCCC1=O [R-KEP, R-ketamine pamoate] | normal behavior | – | – | – | – | – | – | – | – | – | rapid-onset antidepressant effects | reduced the immobility times | reduced the immobility times | – | – | – | –
5 | CNC1(c2ccccc2Cl)CCCCC1=O (centres unmarked) [KET, ketamine HCl, reference compound] | heavy sedation-related behavior | – | – | granule cells were lack, and the morphology of pyramidal cells changed to be small or shrinking like in process of degradation | protrusive and enlarged mucosal folds | smooth | – | injection site erythema, which gradually became open wound | infiltration of inflammatory cells in connective tissues | morphology damage on epidermis, dermis, subcutis, and muscle tissues | rapid-onset antidepressant effects | reduced the immobility times | reduced the immobility times | – | 2 h | bladder fibrosis and neuronal morphology alteration in brain | 60 mg/kg of ketamine free-base
